Measured values taken from patent US11827628B2, “Compositions and methods for inhibition of the JAK pathway” (Rigel Pharmaceuticals, Inc., priority 2005, dated 2023).
Counter-ions that a name gives are not always drawn.

Tested on: Primary human T-cells
Assay: Primary Human T-Cell Proliferation Assay Stimulated with IL-2 (CellTiter-Glo)
Format: cell-based
Conditions: primary human T-cell proliferation stimulated with IL-2; dihydrochloride; read-out: IC50, Example 42
In short: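 IC50 derived from CellTiter-Glo ATP signal after 72 hours of IL-2-driven proliferation at 37° C. Cells: primary human T-cells from blood, stimulated beforehand 3-4 days on anti-CD3/anti-CD28 with IL-2, then rested from IL-2 before compound exposure in duplicate; IL-2-free wells served as unstimulated control.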

Q: With `CNS(=O)(=O)c1cc(Nc2ncc(F)c(Nc3ccc(Cn4ccnc4)cc3)n2)ccc1C` [III-86, 5-Fluoro-N2-[3-(N-methylaminosulfony)-4-methylphenyl]-N4-[4-(1-imidazolylmethyl)phenyl]-2,4-pyrimidinediamine dihydrochloride] as the compound, how does the IC50 read?
A: The IC50 was 93.9 nM.

Same assay, conditions: primary human T-cell proliferation stimulated with IL-2; hydrochloride; read-out: IC50, Example 42

Q: For `CNS(=O)(=O)c1cc(Nc2ncc(F)c(Nc3ccc(Cn4ccnc4)cc3)n2)ccc1C` [III-85, 5-Fluoro-N2-[3-(N-methylaminosulfony)-4-methylphenyl]-N4-[4-(1-imidazolylmethyl)phenyl]-2,4-pyrimidinediamine hydrochloride], which IC50 is on record?
A: The IC50 was 122 nM.

Same assay, conditions: primary human T-cell proliferation stimulated with IL-2; read-out: IC50, Example 42

Q: With `CC(C)c1ccc(Nc2ncc(F)c(Nc3ccc(OCC#N)cc3)n2)cc1S(N)(=O)=O` [Compound I-8, N2-(3-Aminosulfonyl-4-iso-propylphenyl)-N4-(4-cyanomethyleneoxyphenyl)-5-fluoro-2,4-pyrimidinediamine] as the compound, how does the IC50 read?
A: The IC50 was 174 nM.

Q: For `CNS(=O)(=O)c1cc(Nc2ncc(F)c(Nc3ccc(-c4ccccn4)c(OCF)c3)n2)ccc1C` [Compound I-173, 5-Fluoro-N2-[3-N-(methyl)aminosulfonyl-4-methylphenyl]-N4-[4-(2-pyridinyl)-3-fluoromethyleneoxyphenyl]-2,4-pyrimidinediamine], which IC50 is on record?
A: Its IC50 is 907 nM.

Q: With `CN1CCN(c2ccc(Nc3ncc(F)c(Nc4ccc(OCC#N)c(F)c4)n3)cc2S(N)(=O)=O)CC1` [Compound I-10, N2-[3-Aminosulfonyl-4-(4-methylpiperazine-1-yl)phenyl]-5-fluoro-N4-(4-cyanomethyleneoxy-3-fluorophenyl)-2,4-pyrimidinediamine] as the compound, how does the IC50 read?
A: Its IC50 is 95.7 nM.

Q: How did the IC50 turn out when `CNS(=O)(=O)c1cc(Nc2ncc(F)c(Nc3cccc(OCc4cccnc4)c3)n2)ccc1C` [Compound I-184, 5-Fluoro-N2-[3-(N-methylaminosulfony)-4-methylphenyl]-5-fluoro-N4-[3-(3-pyridinyl)methyleneoxyphenyl]-2,4-pyrimidinediamine] was run?
A: The IC50 was 2570 nM.

Q: Which IC50 does the source give for `Cc1cc(Nc2nc(Nc3ccc(S(N)(=O)=O)cc3)ncc2F)ccc1OC(C)C(N)=O` (racemic) [Compound I-119, Racemic N4-[4-(1-Aminocarbonyl)ethoxy-3-methyl]phenyl-N2-(4-aminosulfonyl)phenyl-5-fluoro-2,4-pyrimidinediamine] here?
A: The IC50 was 2440 nM.

Q: `Cc1ccc(Nc2ncc(F)c(Nc3cccc(OCc4cccnc4)c3)n2)cc1S(N)(=O)=O` [Compound I-183, N2-(3-Aminosulfonyl-4-methylphenyl)-5-fluoro-N4-[3-(3-pyridinyl)methyleneoxyphenyl]-2,4-pyrimidinediamine] was tested. Which IC50 did it give?
A: The IC50 was 1830 nM.

Q: For `Cc1cnc(Nc2cccc(S(N)(=O)=O)c2)nc1Nc1ccc(OCc2ccccn2)cc1` [Compound I-179, N2-(3-Aminosulfonylphenyl)-5-methyl-N4-[4-(2-pyridinyl)methyleneoxyphenyl]-2,4-pyrimidinediamine], which IC50 is on record?
A: Its IC50 is 11.8 nM.

Q: `Cc1ccc(Nc2ncc(F)c(Nc3cc(C)c(OC(C)C(N)=O)c(C)c3)n2)cc1S(N)(=O)=O` (racemic) [Compound I-124, Racemic N4-[4-(1-Aminocarbonyl)ethoxy-3,5-dimethyl]phenyl-N2-(3-aminosulfonyl-4-methyl)phenyl-5-fluoro-2,4-pyrimidinediamine] was tested. Which IC50 did it give?
A: The IC50 was 342 nM.

Q: Which IC50 does the source give for `Cc1cc(COc2cccc(Nc3nc(Nc4ccc(C)c(S(N)(=O)=O)c4)ncc3F)c2)no1` [Compound I-214] here?
A: Its IC50 is 1330 nM.

Q: How did the IC50 turn out when `Cc1ccc(Nc2ncc(Br)c(Nc3ccc(OCC#N)cc3)n2)cc1S(N)(=O)=O` [Compound I-14, N2-(3-Aminosulfonyl-4-methylphenyl)-5-bromo-N4-(4-cyanomethyleneoxyphenyl)-2,4-pyrimidinediamine] was run?
A: The IC50 was 11.5 nM.

Q: `CCN(CC)CCNS(=O)(=O)c1ccc(Nc2ncc(F)c(Nc3cccc(OCc4cccnc4)c3)n2)cc1` [Compound I-186, N2-[4-(2-N,N-Diethylaminoethyl)aminosulfonylphenyl)-5-fluoro-N4-[3-(3-pyridinyl)methyleneoxyphenyl]-2,4-pyrimidinediamine] was tested. Which IC50 did it give?
A: Its IC50 is 1080 nM.

Q: For `Cc1cc(COc2ccc(Nc3nc(Nc4ccc(C)c(S(N)(=O)=O)c4)ncc3F)cc2)[nH]n1` [Compound I-197, N2-(3-Aminosulfonyl-4-methylphenyl)-5-fluoro-N4-[4-(3-methyl-(1H)-pyrazol-5-yl)methyleneoxyphenyl]-2,4-pyrimidinediamine], which IC50 is on record?
A: Its IC50 is 329 nM.

Q: `Cc1ccc(Nc2ncc(F)c(Nc3ccc(OC(C)C(N)=O)cc3)n2)cc1S(N)(=O)=O` (stereo not drawn) [Compound I-118, N4-[4-(1-Aminocarbonyl)ethoxy]phenyl-N2-(3-aminosulfonyl-4-methyl)phenyl-5-fluoro-2,4-pyrimidinediamine] was tested. Which IC50 did it give?
A: The IC50 was 557 nM.

Q: Which IC50 does the source give for `CC(Oc1ccc(Nc2nc(Nc3cccc(S(N)(=O)=O)c3)ncc2F)cc1)C(N)=O` (racemic) [Compound I-117, Racemic N4-[4-(1-Aminocarbonyl)ethoxy]phenyl-N2-(3-aminosulfonyl)phenyl-5-fluoro-2,4-pyrimidinediamine] here?
A: Its IC50 is 301 nM.

Q: `Cc1ccc(Nc2ncc(F)c(Nc3ccc(OC(C)(C)C(N)=O)cc3)n2)cc1S(N)(=O)=O` [Compound I-127, N4-[4-(1-Aminocarbonyl-1-methyl)ethoxy]phenyl-N2-(3-aminosulfonyl-4-methyl)phenyl-5-fluoro-2,4-pyrimidinediamine] was tested. Which IC50 did it give?
A: Its IC50 is 510 nM.

Q: With `Cc1cc(Nc2nc(Nc3ccc(C)c(S(N)(=O)=O)c3)ncc2F)ccc1OC(C)C(N)=O` (racemic) [Compound I-121, Racemic N4-[4-(1-Aminocarbonyl)ethoxy-3-methyl]phenyl-N2-(3-aminosulfonyl-4-methyl)phenyl-5-fluoro-2,4-pyrimidinediamine] as the compound, how does the IC50 read?
A: The IC50 was 634 nM.

Q: With `CCN(CC)CCNS(=O)(=O)c1ccc(Nc2ncc(F)c(Nc3ccc(OCc4ccccn4)cc3)n2)cc1` [Compound I-165, N2-[4-(2-N,N-Diethylaminoethyl)aminosulfonylphenyl)-5-fluoro-N4-[4-(2-pyridinyl)methyleneoxyphenyl]-2,4-pyrimidinediamine] as the compound, how does the IC50 read?
A: Its IC50 is 446 nM.

Same assay, conditions: primary human T-cells stimulated with IL-2, proliferation; read-out: IC50, Example 42

Q: `COCCOc1ccc(Nc2nc(Nc3ccc(C)c(S(N)(=O)=O)c3)ncc2F)cc1` [VI-112, N2-(3-Aminosulfonyl-4-methylphenyl)-5-fluoro-N4-[4-(2-methoxyethyleneoxy)phenyl]-2,4-pyrimdinediamine] was tested. Which IC50 did it give?
A: The IC50 was 770 nM.

Q: `Cc1ccc(Nc2ncc(F)c(Nc3ccc4[nH]cc(CC#N)c4c3)n2)cc1S(=O)(=O)NC1CCN(C)CC1` [IX-19, N4-(3-cyanomethylene-1H-indol-5yl)-5-fluoro-N2-[3-(1-methyl-4-aminopiperadine)sulfonyl-4-methylphenyl]-2,4-pyrimidinediamine] was tested. Which IC50 did it give?
A: The IC50 was 1600 nM.

Q: How did the IC50 turn out when `NC1CCOc2ccc(Nc3nc(Nc4ccc(S(N)(=O)=O)cc4)ncc3F)cc21` (stereo not drawn) [VII-29, N2-(4-Aminosulfonylphenyl)-N4-(chroman-4-amine-6-yl)-5-fluoro-2,4-pyrimidinediamine] was run?
A: The IC50 was 1460 nM.

Q: For `N#CCn1ccc2cc(Nc3nc(Nc4ccc(Cl)c(S(N)(=O)=O)c4)ncc3F)ccc21` [IX-7, N2-(3-Aminosulfonyl-4-chlorophenyl)-N4-(1-cyanomethyleneindol-5-yl)-5-fluoro-2,4-pyrimidinediamine], which IC50 is on record?
A: The IC50 was 751 nM.

Q: With `NS(=O)(=O)c1cccc(Nc2ncc(F)c(Nc3ccc(OCC(F)(F)F)cc3)n2)c1` [VI-47, N2-(3-Aminosulfonylphenyl)-5-fluoro-N4-(4-trifluoromethylmethyleneoxyphenyl)-2,4-pyrimidinediamine] as the compound, how does the IC50 read?
A: Its IC50 is 259 nM.

Q: With `COCCn1ncc2cc(Nc3nc(Nc4cccc(S(N)(=O)=O)c4)ncc3F)ccc21` [VII-23, N2-(3-Aminosulfonylphenyl)-5-fluoro-N4-[1-(2-methoxyethyl)indazolin-5-yl]-2,4-pyrimidinediamine] as the compound, how does the IC50 read?
A: The IC50 was 161 nM.

Q: Which IC50 does the source give for `CN1C(=O)C(C)(C)Oc2cc(Nc3nc(Nc4cccc(S(N)(=O)=O)c4)ncc3F)cnc21` [VII-42, N2-(3-Aminosulfonylphenyl)-N4-[2,2,4-trimethyl-3-oxo-5-pyrid[1,4]oxazin-7-yl]-5-fluoro-2,4-pyrimidinediamine] here?
A: The IC50 was 7280 nM.

Q: Which IC50 does the source give for `CCS(=O)(=O)N1CCc2cc(Nc3nc(Nc4cccc(S(N)(=O)=O)c4)ncc3F)ccc2C1` [VII-14, N2-(3-aminosulfonyl)phenyl-N4-[(N-ethylsulfonyl)-1,2,3,4-tetrahydroisoquinolin-6-yl]-5-fluoro-2,4-pyrimidinediamine] here?
A: The IC50 was 177 nM.

Q: “N2-[3-Aminosulfonyl-4-(4-methylpiperazine-1-yl)phenyl]-N4-(3-cyanomethylene-1H-indol-7-yl)-5-fluoro-2,4-pyrimidinediamine [IX-18]” was tested. Which IC50 did it give?
A: Its IC50 is 2400 nM.

Q: For `Cc1ccc(Nc2ncc(F)c(Nc3ccc4c(c3)CC(C(=O)N(C)C)O4)n2)cc1S(N)(=O)=O` (racemic) [VII-26, Racemic N2-(3-Aminosulfonyl-4-methylphenyl)-N4-[2-(N,N-dimethylaminocarbonyl)-2,3-dihydrobenzofuran-5-yl]-5-fluoro-2,4-pyrimidinediamine], which IC50 is on record?
A: The IC50 was 1200 nM.

Q: How did the IC50 turn out when `N#CCN1C(=O)CSc2ccc(Nc3nc(Nc4cccc(S(N)(=O)=O)c4)ncc3F)cc21` [VII-36, N2-(3-Aminosulphonylphenyl)-5-fluoro-N4-(3-oxo-4-cyanomethyl-benzo[1,4]thiazin-6-yl)-2,4-pyrimidinediamine] was run?
A: Its IC50 is 119 nM.

Q: For “N2-(3-Aminosulphonylphenyl)-5-fluoro-N4-[4-(3-pyridinylmethyl)benzo[1,4]oxazin-7-yl]-2,4-pyrimidinediamine [VII-56]”, which IC50 is on record?
A: Its IC50 is 1280 nM.

Q: How did the IC50 turn out when `CNC(=O)N1CCc2ccc(Nc3nc(Nc4ccc(C)c(S(N)(=O)=O)c4)ncc3F)cc2C1` [VII-17, N2-(3-Aminosulfonyl-4-methylphenyl)-5-fluoro-N4-[2-(methylaminocarbonyl)-1,2,3,4-tetrahydroisoquin-7-yl]-2,4-pyrimidinediamine] was run?
A: Its IC50 is 2100 nM.

Q: `CNS(=O)(=O)c1cc(Nc2ncc(F)c(Nc3ccc4c(c3)CCN4S(C)(=O)=O)n2)ccc1C` [VII-62, 5-Fluoro-N2-[3-(N-methylaminosulfony)-4-methylphenyl]-N4-[4-(1-methylsulfonyl)indolin-5-yl]-2,4-pyrimidinediamine] was tested. Which IC50 did it give?
A: The IC50 was 144 nM.
